In patent US11814376B2, “Hepatitis b core protein modulators” (Assembly Biosciences, Inc., priority 2015, dated 2023):

Experiments:
AD38 cells = experiment: Viability of AD38 cells (Promega CellTiter-Glo); assay type: cell-based; details: 10 μM compound, 6 days, CellTiter-Glo luminescence normalized to DMSO control (100%)
In short: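 After 6 days of compound exposure at 37° C (compound added as 10× solution in 10% DMSO; 50,000 cells/well, collagen-coated), medium was replaced with tetracycline-free DMEM/F12, 2% FBS, 1% DMSO. CellTiter-Glo luminescence was then recorded and normalized to DMSO-treated wells as 100% viability.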

[1] = test system: HBV viral load in AD38 cells; experiment: Viral load production in AD38 cells, quantitative PCR of the core sequence in supernatant; assay type: cell-based; details: Hepatitis B virus, 144 h, 10 μM compound, 6 days at 37° C., supernatant qPCR, relative to DMSO control; read-out: AD38 Viral Load (%) (VL with cmpd/VL in DMSO control) at 10 μM

| SMILES | AD38 Viability Normalized Result (cmpd/DMSO %) at 10 μM (AD38 cells) [%] | activity at 10 µM [1] [%] |
| --- | --- | --- |
| CC(C)(C)NC(=O)c1ccc(-c2ncc(CNC(=O)c3ccc4c(c3)NC(=O)c3ccccc3S4(=O)=O)s2)cc1 [compound 1947] | 101 | 2.3 |
| Cc1c(C(=O)NCc2cnc(-c3ccc(C#N)cc3)s2)ccc2c1NC(=O)c1ccccc1S2(=O)=O [compound 1877] | 96 | 0.2 |
| O=C(NCc1cnc(-c2nccs2)s1)c1ccc2c(c1)NC(=O)c1ccccc1O2 [compound 1893] | 91 | 2 |
| O=C(NCc1cnc(-c2ccc(OCCCNCC(F)(F)F)cc2)s1)c1ccc2c(c1)NC(=O)c1ccccc1S2(=O)=O [compound 11102] | 93 | 0.5 |
| CN(C)c1ccc(-c2ncc(CNC(=O)c3ccc4c(c3)NC(=O)c3ccccc3O4)s2)cc1 [compound 1697] | 90 | 5.5 |
| CC(C)(C)OC(=O)N1CCC[C@@H]1COc1ccc(-c2ncc(CNC(=O)c3ccc4c(c3)NC(=O)c3ccccc3S4(=O)=O)s2)cc1 [11104-A, tert-butyl (R)-2-((4-(5-((5,5-dioxido-11-oxo-10, 11-dihydrodibenzo [b, f] [1, 4]thiazepine-8-carboxamido)methyl)thiazol-2-yl)phenoxy)methyl) pyrrolidine-1-carboxylate] | 74 | 0.9 |
| O=C1CCCCN(c2ncc(CNC(=O)c3ccc4c(c3)NC(=O)c3ccccc3S4(=O)=O)s2)C1 [compound 1909, 11-oxo-N-((2-(3-oxoazepan-1-yl)thiazol-5-yl)methyl)-10, 11-dihydrodibenzo [b, f] [1, 4] thiazepine-8-carboxamide 5,5-dioxide] | 95 | 1.3 |
| O=C(NCc1cnc(-c2ccc(O)c(F)c2)s1)c1ccc2c(c1)NC(=O)c1ccccc1S2(=O)=O [compound 1664] | 99 | 0.6 |
| CCN(CC)CCCSc1ccc(-c2ncc(CNC(=O)c3ccc4c(c3)NC(=O)c3ccccc3S4(=O)=O)s2)cc1 [compound 11063, N-((2-(4-((3-(diethylamino)propyl)thio)phenyl)thiazol-5-yl)methyl)-11-oxo-10, 11-dihydrodibenzo [b, f] [1, 4] thiazepine-8-carboxamide 5,5-dioxide] | 102 | 1.2 |
| Cc1c(C(=O)NCc2cnc(C(F)(F)F)s2)ccc2c1NC(=O)c1ccccc1O2 [compound 1941] | 84 | 5.2 |
| O=C(NCc1cnc(-c2ccc(N3CCCC3=O)cc2)s1)c1ccc2c(c1)NC(=O)c1ccccc1O2 [compound 1864] | 93 | 3 |
| N#Cc1ccc(-c2ncc(CNC(=O)c3ccc4c(c3)NC(=O)c3ccccc3S4(=O)=O)s2)cc1F [compound 1815] | 88 | 0.2 |
| Cc1ncc(CNC(=O)c2ccc3c(c2)NC(=O)c2ccc(Cl)cc2S3)s1 [compound 1544] | 88 | 2.6 |
| CCOC(=O)c1cnn(-c2ncc(CNC(=O)c3ccc4c(c3)NC(=O)c3ccccc3S4(=O)=O)s2)c1 [compound 11116] | 97 | 0.9 |
| CN(C)CC(O)COc1ccc(-c2ncc(CNC(=O)c3ccc4c(c3)NC(=O)c3ccccc3S4(=O)=O)s2)cc1 (centres unmarked) [compound 11085] | 88 | 3.4 |
| O=C(NCc1cnc(-c2cc(O)ccn2)s1)c1ccc2c(c1)NC(=O)c1ccccc1S2(=O)=O [compound 1880, N-((2-(4-hydroxypyridin-2-yl)thiazol-5-yl)methyl)-11-oxo-10, 11-dihydrodibenzo [b, f] [1, 4] thiazepine-8-carboxamide 5,5-dioxide] | 104 | 6.7 |
